From EPA's ToxRefDB 2

Tests used:
dog [1] = settings: Chronic toxicity; beagle; Oral; Feed; dose end: 52 week; group: systemic; systemic / hematology / erythrocyte (rbc) count differential / erythrocyte (rbc) + systemic / hematology / hemoglobin (hgb) / hemoglobin (…
rat [2] = settings: Prenatal developmental toxicity study, sprague dawley, Oral, Gavage/Intubation, dose end: 16 GD
mouse [3] = settings: Carcinogenicity; cd1; Oral; [Not Specified]; dose end: 104 week; group: systemic; systemic / in life observation / body weight / body weight + systemic / in life observation / body weight / body weight gain
rabbit = settings: Prenatal developmental toxicity study, new zealand white, Oral, Gavage/Intubation, dose end: 19 GD
dog [4] = settings: Chronic toxicity; beagle; Oral; Feed; dose end: 52 week; group: systemic; systemic / hematology / erythrocyte (rbc) count differential / erythrocyte (rbc) + systemic / hematology / hemoglobin (hgb) / hemoglobin (…; remark: listed apart in the source
rat [5] = settings: Combined chronic toxicity/carcinogenicity, sprague dawley, Oral, Feed, dose end: 24 month, group: systemic
rat [6] = settings: Combined chronic toxicity/carcinogenicity; sprague dawley; Oral; Feed; dose end: 24 month; group: systemic; systemic / in life observation / body weight / body weight
rat [7] = settings: Prenatal developmental toxicity study, sprague dawley, Oral, Gavage/Intubation, dose end: 20 GD
rat [8] = settings: Multigenerational reproductive toxicity study, sprague dawley, Oral, Feed, dose end: 2 generation
mouse [9] = settings: Carcinogenicity, cd1, Oral, Feed, dose end: 24 month, group: systemic
dog [10] = settings: Chronic toxicity, beagle, Oral, Capsule, dose end: 12 month, group: systemic
[11] = group: developmental, systemic / in life observation / body weight / fetal weight
[12] = group: maternal, systemic / in life observation / clinical signs / alopecia + systemic / in life observation / clinical signs / vaginal discharge
[13] = group: maternal, systemic / in life observation / clinical signs / alopecia + systemic / in life observation / clinical signs / vaginal discharge + systemic…
[14] = group: developmental, developmental / developmental malformation / aorta / double + developmental / developmental malformation / gallbladder / absent + …
[15] = group: maternal, systemic / in life observation / body weight / body weight gain
[16] = group: maternal, systemic / in life observation / body weight / body weight gain + reproductive / reproductive performance / aborted / aborted + systemic / …
[17] = systemic / in life observation / clinical signs / hyperactivity
[18] = systemic / in life observation / clinical signs / hyperactivity + systemic / in life observation / body weight / body weight + systemic / in…
[19] = group: developmental, developmental / developmental malformation / bone / misaligned + developmental / developmental malformation / general / hemorrhage + …
[20] = group: maternal, systemic / in life observation / body weight / body weight + systemic / in life observation / body weight / body weight gain + systemic / in…
[21] = group: offspring, systemic / in life observation / body weight / offspring (pup) weight
[22] = group: offspring, systemic / in life observation / body weight / offspring (pup) weight + systemic / organ weight / brain / absolute + systemic / organ weight…
[23] = group: parental, systemic / organ weight / liver / relative to body weight + systemic / hematology / hematocrit (hct) / hematocrit (hct) + systemic / …
[24] = group: parental, systemic / organ weight / liver / relative to body weight + systemic / in life observation / body weight / body weight + systemic / in life …
[25] = group: reproductive, reproductive / offspring survival early / litter size / litter size
[26] = systemic / in life observation / food consumption / food consumption
[27] = systemic / in life observation / body weight / body weight gain + systemic / organ weight / liver / relative to body weight
[28] = systemic / in life observation / body weight / body weight gain + systemic / organ weight / liver / relative to body weight + systemic / …

Work on `COc1nc(C)nc(NC(=O)NS(=O)(=O)c2ccccc2Cl)n1` [Chlorsulfuron] yielded an LEL (dog [1]) of 254 mg/kg/day, an LOAEL (dog [1]) of 254 mg/kg/day and an NEL (dog [1]) of 60.6 mg/kg/day. It also gave an NOAEL (dog [1]) of 60.6 mg/kg/day, an LEL (rat [2]; [11]) of 1500 mg/kg/day and an LOAEL (rat [2]; [11]) of 1500 mg/kg/day. The NEL (rat [2]; [11]) was 500 mg/kg/day, the NOAEL (rat [2]; [11]) was 500 mg/kg/day and the LEL (rat [2]; [12]) was 500 mg/kg/day. It also gave an LOAEL (rat [2]; [12]) of 500 mg/kg/day, an NEL (rat [2]; [13]) of 165 mg/kg/day and an NOAEL (rat [2]; [13]) of 165 mg/kg/day. For the same compound, the LEL (mouse [3]) was 750 mg/kg/day, the LOAEL (mouse [3]) was 750 mg/kg/day and the NEL (mouse [3]) was 108 mg/kg/day. It also gave an NOAEL (mouse [3]) of 108 mg/kg/day, an LEL (rabbit; [14]) of 400 mg/kg/day and an LOAEL (rabbit; [14]) of 400 mg/kg/day. For the same compound, the NEL (rabbit; [14]) was 200 mg/kg/day, the NOAEL (rabbit; [14]) was 200 mg/kg/day and the LEL (rabbit; [15]) was 200 mg/kg/day. The LOAEL (rabbit; [15]) was 200 mg/kg/day, the NEL (rabbit; [16]) was 75 mg/kg/day and the NOAEL (rabbit; [16]) was 75 mg/kg/day. It also gave an LEL (dog [4]) of 254 mg/kg/day, an LOAEL (dog [4]) of 254 mg/kg/day and an NEL (dog [4]) of 60.6 mg/kg/day. It also gave an NOAEL (dog [4]) of 60.6 mg/kg/day, an LEL (rat [5]; [17]) of 30 mg/kg/day and an LOAEL (rat [5]; [17]) of 30 mg/kg/day. The NEL (rat [5]; [18]) was 2 mg/kg/day and the NOAEL (rat [5]; [18]) was 2 mg/kg/day.

Work on `CCSC(=O)N(CC(C)C)CC(C)C` [Butylate] yielded an LEL (rat [6]) of 100 mg/kg/day, an LOAEL (rat [6]) of 100 mg/kg/day and an NEL (rat [6]) of 50 mg/kg/day. For the same compound, the NOAEL (rat [6]) was 50 mg/kg/day, the LEL (rat [7]; [19]) was 400 mg/kg/day and the LOAEL (rat [7]; [19]) was 400 mg/kg/day. It also gave an NEL (rat [7]; [19]) of 40 mg/kg/day, an NOAEL (rat [7]; [19]) of 40 mg/kg/day and an LEL (rat [7]; [20]) of 400 mg/kg/day. The LOAEL (rat [7]; [20]) was 400 mg/kg/day, the NEL (rat [7]; [20]) was 40 mg/kg/day and the NOAEL (rat [7]; [20]) was 40 mg/kg/day. It also gave an NEL (rat [8]; [21]) of 10 mg/kg/day, an NOAEL (rat [8]; [21]) of 10 mg/kg/day and an LEL (rat [8]; [22]) of 50 mg/kg/day. It also gave an LOAEL (rat [8]; [22]) of 50 mg/kg/day, an NEL (rat [8]; [23]) of 10 mg/kg/day and an NOAEL (rat [8]; [23]) of 10 mg/kg/day. It also gave an LEL (rat [8]; [24]) of 50 mg/kg/day, an LOAEL (rat [8]; [24]) of 50 mg/kg/day and an LEL (rat [8]; [25]) of 200 mg/kg/day. It also gave an LOAEL (rat [8]; [25]) greater than 200 mg/kg/day, an NEL (rat [8]; [25]) of 50 mg/kg/day and an NOAEL (rat [8]; [25]) of no less than 200 mg/kg/day. It also gave an LOAEL (mouse [9]; systemic / in life observation / body weight / body weight + systemic / pathology microscopic / kidney / amyloid deposition + systemic / …) of 80 mg/kg/day, an LEL (mouse [9]; [26]) of 20 mg/kg/day and an NEL (mouse [9]; [26]) of less than 20 mg/kg/day. The NOAEL (mouse [9]; systemic / in life observation / food consumption / food consumption + systemic / in life observation / body weight / body weight + systemic…) was 20 mg/kg/day, the LEL (dog [10]; [27]) was 25 mg/kg/day and the LOAEL (dog [10]; [27]) was 25 mg/kg/day. The NEL (dog [10]; [28]) was 5 mg/kg/day and the NOAEL (dog [10]; [28]) was 5 mg/kg/day.
